{"source": "BindingDB's records for doi:10.7270/Q2C53J9J", "about": "(University of Pittsburgh, 2010)", "data": [{"target": "T1, Glucose-6-phosphate 1-dehydrogenase (Leuconostoc mesenteroides, UniProt P11411)", "T1 sequence (P11411 whole entry)": "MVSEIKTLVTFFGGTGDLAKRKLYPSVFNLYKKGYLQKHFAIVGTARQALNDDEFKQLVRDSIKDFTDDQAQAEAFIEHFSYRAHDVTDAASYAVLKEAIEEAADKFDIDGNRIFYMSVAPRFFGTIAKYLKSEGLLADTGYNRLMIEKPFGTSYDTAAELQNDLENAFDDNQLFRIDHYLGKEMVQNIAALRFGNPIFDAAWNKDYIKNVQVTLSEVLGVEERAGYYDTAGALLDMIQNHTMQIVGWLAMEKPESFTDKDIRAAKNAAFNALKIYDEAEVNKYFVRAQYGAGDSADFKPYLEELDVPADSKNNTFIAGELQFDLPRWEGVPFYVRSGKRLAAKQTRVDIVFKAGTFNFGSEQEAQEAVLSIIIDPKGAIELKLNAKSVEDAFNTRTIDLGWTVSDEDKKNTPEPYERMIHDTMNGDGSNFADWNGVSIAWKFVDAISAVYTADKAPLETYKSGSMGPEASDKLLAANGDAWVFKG", "assay": "Leuconostoc G6PDH inhibition potency, SAR follow-up, counter-screen for TbHK1 inhibitor project, biochemical, analogue series, IC50 (AID 2579)", "units": {"IC50": "µM"}, "values": [{"smiles": "O=C(Cn1sc2ccccc2c1=O)Nc1ccc(Cl)cc1", "note": "[N-(4-chlorophenyl)-2-(3-oxidanylidene-1,2-benzothiazol-2-yl)ethanamide]", "IC50": "> 25"}, {"smiles": "COc1ccc(C(=O)Nc2cc(F)cc(F)c2O)cc1", "note": "[N-(3,5-difluoro-2-hydroxyphenyl)-4-methoxybenzamide]", "IC50": "> 25"}, {"smiles": "COc1ccccc1C(=O)Nc1cc(Cl)ccc1C(=O)O", "IC50": "> 25"}, {"smiles": "O=c1c2cc(Br)ccc2[s+]([O-])n1-c1ccccc1", "note": "(centres undefined)", "IC50": "> 25"}, {"smiles": "O=C(CCn1sc2ccccc2c1=O)Nc1ccccc1", "note": "[3-(3-oxidanylidene-1,2-benzothiazol-2-yl)-N-phenyl-propanamide]", "IC50": "> 25"}, {"smiles": "O=C(Nc1cc(Cl)ccc1C(=O)O)c1ccsc1", "note": "[KUC105926N]", "IC50": "> 25"}, {"smiles": "O=C(Cn1sc2ccccc2c1=O)Nc1cccc(F)c1", "note": "[N-(3-fluorophenyl)-2-(3-oxo-1,2-benzothiazol-2-yl)acetamide]", "IC50": "> 25"}, {"smiles": "O=C(Nc1ccccc1)n1sc2ccccc2c1=O", "note": "[KUC105339N]", "IC50": "> 25"}, {"smiles": "O=C(Cn1sc2ccccc2c1=O)Nc1cccc(C(F)(F)F)c1", "note": "[KUC104221N]", "IC50": "> 25"}, {"smiles": "COc1ccc(C(=O)Nc2ccc(Cl)cc2C(=O)O)cc1", "note": "[KUC105713N]", "IC50": "> 25"}, {"smiles": "O=c1cc(-c2ccccc2)sn1-c1ccccc1", "IC50": "> 25"}, {"smiles": "COc1ccc(C(=O)Nc2cc(F)ccc2C(=O)O)cc1", "note": "[KSC-6-276]", "IC50": "> 25"}, {"smiles": "COc1cc(C(=O)Nc2cc(Cl)ccc2C(=O)O)cc(OC)c1OC", "IC50": "> 25"}, {"smiles": "Cc1ccc(NC(=O)Cn2sc3ccccc3c2=O)cc1", "note": "[KUC104219N]", "IC50": "> 25"}, {"smiles": "Cc1ccc(-n2sc3ccccc3c2=O)cc1", "note": "[2-(4-methylphenyl)-1,2-benzisothiazol-3(2H)-one]", "IC50": "> 25"}, {"smiles": "O=c1ccsn1-c1ccccc1", "note": "[2-Phenyl-isothiazol-3-one]", "IC50": "> 25"}, {"smiles": "COc1ccc(C(=O)Nc2cc(Cl)ccc2[N+](=O)[O-])cc1", "note": "[KSC-6-266]", "IC50": "> 25"}, {"smiles": "COc1ccc(C(=O)Nc2cc(Cl)ccc2C(=O)O)cc1OC", "note": "[4-chloro-2-[(3,4-dimethoxybenzoyl)amino]benzoic acid]", "IC50": "> 25"}, {"smiles": "O=c1c(Br)csn1-c1ccc(Br)cc1", "note": "[4-bromo-2-(4-bromophenyl)-3-isothiazolone]", "IC50": "> 25"}, {"smiles": "COC(=O)c1ccc(Cl)cc1NS(=O)(=O)c1ccc(OC)cc1", "IC50": "> 25"}, {"smiles": "O=c1c2cc(N3CCOCC3)ccc2sn1-c1ccccc1", "IC50": "> 25"}, {"smiles": "O=C(Cn1sc2ccccc2c1=O)Nc1ccccc1Cl", "note": "[N-(2-chlorophenyl)-2-(3-oxidanylidene-1,2-benzothiazol-2-yl)ethanamide]", "IC50": "> 25"}, {"smiles": "CC(C)Cc1ccc(C(=O)Nc2cc(Cl)ccc2C(=O)O)cc1", "note": "[4-chloranyl-2-[[4-(2-methylpropyl)phenyl]carbonylamino]benzoic acid]", "IC50": "> 25"}, {"smiles": "COc1ccc(Nc2cc(Cl)ccc2C(=O)O)cc1", "note": "[4-chloro-2-(4-methoxyanilino)benzoic acid]", "IC50": "> 25"}, {"smiles": "Cn1sc(=O)c2ccccc21", "note": "[KUC103851N]", "IC50": "> 25"}, {"smiles": "COc1ccc(C(=O)O)c(NC(=O)c2ccc(Cl)cc2)c1", "IC50": "> 25"}, {"smiles": "OB1OCc2cc(C(F)(F)F)ccc21", "note": "[KSC-6-287]", "IC50": "> 25"}, {"smiles": "COc1ccc(-c2cc3ccccc3[nH]2)cc1", "note": "[KUC105790N]", "IC50": "> 25"}, {"smiles": "COc1ccc(C(=O)Nc2cc(Cl)ccc2C(=O)O)cn1", "note": "[4-chloranyl-2-[(6-methoxypyridin-3-yl)carbonylamino]benzoic acid]", "IC50": "> 25"}, {"smiles": "COc1cccc(-n2sc3ccccc3c2=O)c1", "note": "[2-(3-methoxyphenyl)-1,2-benzothiazol-3-one]", "IC50": "> 25"}, {"smiles": "O=C(Nc1cc(Cl)ccc1C(=O)O)c1ccoc1", "note": "[4-chloranyl-2-(furan-3-ylcarbonylamino)benzoic acid]", "IC50": "> 25"}, {"smiles": "CCOc1ccc(C(=O)Nc2cc(Cl)ccc2C(=O)O)cc1", "note": "[4-chloro-2-[[(4-ethoxyphenyl)-oxomethyl]amino]benzoic acid]", "IC50": "> 25"}, {"smiles": "O=c1c2ccccc2sn1-c1cccc(Cl)c1", "note": "[2-(3-chlorophenyl)-1,2-benzothiazol-3-one]", "IC50": "> 25"}, {"smiles": "COc1ccc(C(=O)Nc2cc(-c3ccccc3)ccc2C(=O)O)cc1", "IC50": "> 25"}]}]}
